Assay results from patent US10322995B2, “Substituted cyano cycloalkyl penta-2,4-dienes, cyano cycloalkyl pent-2-en-4-ynes, cyano heterocyclyl penta-2,4-dienes and cyano heterocyclyl pent-2-en-4-ynes as active substances against abiotic plant stress” (BAYER CROPSCIENCE AKTIENGESELLSCHAFT, priority 2014, dated 2019).

Key:
Brassica napus (BRSNS) = test: In vivo analyses Part A: drought stress, visual damage scoring, efficacy EF (BRSNS); conditions: spray application 250 g/ha, efficacy = reduction in damage intensity
Experimental: Seeds of monocotyledonous and dicotyledonous crop plants were sown in sandy loam in wood-fibre pots, covered with soil or sand and cultivated in a greenhouse under good growth conditions. The test plants were treated at the early leaf stage (BBCH10-BBCH13). To assure uniform water supply before commencement of stress, the potted plants were supplied with water by dam irrigation prior to substance application. The inventive compounds, formulated in the form of wettable powders (WP), were sprayed onto the green parts of the plants as an aqueous suspension at an equivalent water application rate of 600 I/ha with addition of 0.2% wetting agent (e.g. agrotin). Substance application was followed immediately by stress treatment of the plants. For this purpose, the pots were transferred in plastic inserts in order to prevent them from subsequently drying out too quickly. Drought stress was induced by gradual drying out under the following conditions: “Day”: 14 hours with illumination at 26° C. “Night”: 10 hours without illumination at 18° C. The duration of the respective stress phases was guided mainly by the condition of the stressed control plants. It was ended (by re-irrigating and transfer to a greenhouse with good growth conditions) as soon as irreversible damage was observed on the stressed control plants. The end of the stress phase was followed by an about 4-7-day recovery phase, during which the plants were once again kept under good growth conditions in a greenhouse. The duration of the recovery phase was guided mainly by when the trial plants had attained a state which enabled visual scoring of potential effects, and was therefore variable. Once this juncture was reached, the intensities of damage were scored visually in comparison to untreated, unstressed controls of the same age. The damage intensity was at first assessed in percent. […]

Zea mays (ZEAMX) = test: In vivo analyses Part A: drought stress, visual damage scoring, efficacy EF (ZEAMX); conditions: spray application 250 g/ha, efficacy = reduction in damage intensity
Experimental: Seeds of monocotyledonous and dicotyledonous crop plants were sown in sandy loam in wood-fibre pots, covered with soil or sand and cultivated in a greenhouse under good growth conditions. The test plants were treated at the early leaf stage (BBCH10-BBCH13). To assure uniform water supply before commencement of stress, the potted plants were supplied with water by dam irrigation prior to substance application. The inventive compounds, formulated in the form of wettable powders (WP), were sprayed onto the green parts of the plants as an aqueous suspension at an equivalent water application rate of 600 I/ha with addition of 0.2% wetting agent (e.g. agrotin). Substance application was followed immediately by stress treatment of the plants. For this purpose, the pots were transferred in plastic inserts in order to prevent them from subsequently drying out too quickly. Drought stress was induced by gradual drying out under the following conditions: “Day”: 14 hours with illumination at 26° C. “Night”: 10 hours without illumination at 18° C. The duration of the respective stress phases was guided mainly by the condition of the stressed control plants. […] Once this juncture was reached, the intensities of damage were scored visually in comparison to untreated, unstressed controls of the same age. The damage intensity was at first assessed in percent. […]

Row | Compound | EF [%] (BRSNS) (Brassica napus (BRSNS)) | EF [%] (ZEAMX) (Zea mays (ZEAMX))
1 | CCOC(=O)/C=C(\C#CC(O)(C(C)C)C1(C#N)CC1)C1CC1 (stereo not drawn) [I.1-124, Ethyl (2Z)-6-(1-cyanocyclopropyl)-3-cyclopropyl-6-hydroxy-7-methyloct-2-en-4-ynoate] | >5 | –
2 | CCOC(=O)/C=C(/C)C#CC(O)(C(C)C)C1(C#N)CC1 (stereo not drawn) [I.1-136] | >5 | >5
